In patent US20180111913A1, “SUBSTITUTED BENZOFURAN DERIVATIVES AS NOVEL ANTIMYCOBACTERIAL AGENTS” (priority 2015, published 2018):
In brackets after ≈: the same amount, converted by molar mass. Where two headings read alike, the source gives them in different places.

Key:
[1] = system: human dermal fibroblast (HDF) cells; details: for Non-Toxic Concentration: human, 48 h
[2] = target: Mtb Pks13-TE domain (wild-type) (Mycobacterium tuberculosis, UniProt I6X8D2); assay: biochemical; format: biochemical
[3] = GKO mice, 300 mg/kg, 200 mg/kg from day 4; seizures
M tuberculosis = format: in vivo, Mycobacterium tuberculosis in GKO mice
Mtb strain mc^27000 = assay: microbe, parasite or virus in culture; format: cell-based, Mycobacterium tuberculosis
Mtb isolate H37Rv = details: whole-cell screen; cited from earlier work
Mtb (Erdman lux strain) = format: in vivo, Mycobacterium tuberculosis in female Balb/C mice
[4] = HDF cell survival relative to DMSO-only control at the first (or only) Non-Toxic Concentration value
[5] = Mtb Pks13-TE domain, mean ± s.d. of triplicates, read-out: IC50
[6] = Pks13-TE, 20 μM 4-MUH, read-out: IC50
[7] = Pks13 enzyme inhibition, read-out: Pks13 IC50
[8] = Mtb mc^27000, liquid medium, 96-well plates, read-out: MIC
[9] = Mycobacterium tuberculosis, […], mean ± s.d. of triplicates, NI: no inhibition, read-out: MIC
[10] = Mycobacterium tuberculosis, read-out: Pks13 MIC
[11] = Mycobacterium tuberculosis, Mtb mc^27000, liquid medium, 96-well plates, read-out: MIC
[12] = HDF cell survival relative to DMSO-only control at the second Non-Toxic Concentration value
[13] = […], mean ± s.d. of triplicates, NI: no inhibition

Chain of Mtb Pks13-TE domain (wild-type) (I6X8D2 1451-1733): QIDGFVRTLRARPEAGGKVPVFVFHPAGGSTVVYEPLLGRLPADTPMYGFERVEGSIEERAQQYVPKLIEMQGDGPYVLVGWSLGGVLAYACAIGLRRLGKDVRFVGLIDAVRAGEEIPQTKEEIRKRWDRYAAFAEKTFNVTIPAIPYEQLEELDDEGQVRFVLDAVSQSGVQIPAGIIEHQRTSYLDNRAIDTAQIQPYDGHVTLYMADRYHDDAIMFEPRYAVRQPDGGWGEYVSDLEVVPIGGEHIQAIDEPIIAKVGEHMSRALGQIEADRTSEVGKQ

Compound	Survival vs. Control [1, 4] [%]	Non-Toxic Concentration [1] [µM]	IC50 [2, 6] [nM]	IC50 [2, 7] [nM]	MIC (Mtb strain mc^27000; [10]) [µM]	MIC (Mtb strain mc^27000; [11]) [µM]	also measured
CNC(=O)c1c(-c2ccccc2)oc2ccc(O)c(CN3CCCCC3)c12 [compound 17]	103	50	290	290	0.2 (≈ 0.0729 µg/mL)		growth inhibition in HDF cells relative to DMSO only control [1]: did not show any growth inhibition; IC50 [2, 5]: 290 ± 10 nM; toxicity observed during dosing [3]: apparent toxicity; log CFU reduction versus untreated control in the lungs (M tuberculosis; GKO mice, 300 mg/kg then 200 mg/kg from day 4, sacrificed day 8 of dosing, no drug clearance period, lungs): 0.53 log CFU; log CFU reduction versus untreated control in the spleen (M tuberculosis; GKO mice, 300 mg/kg then 200 mg/kg from day 4, sacrificed day 8 of dosing, no drug clearance period, spleen): 3.72 log CFU; Lung CFU (M tuberculosis; mouse, in vivo): 7.21; Lung RLU (M tuberculosis; mouse, in vivo): 4.24; Spleen CFU (M tuberculosis; mouse, in vivo): 3.01; Spleen RLU (M tuberculosis; mouse, in vivo): 1.85; MIC (Mtb strain mc^27000; Mtb mc^27000, liquid medium, 96-well plates, listed as compound L, read-out: MIC): 0.2 µM (≈ 0.0729 µg/mL); MIC (Mtb strain mc^27000; [8]): 2 µM (≈ 0.729 µg/mL); MIC (Mtb strain mc^27000; [9]): 0.2 µM (≈ 0.0729 µg/mL); MIC lower than that of the test compound (Mtb strain mc^27000; relative to test compound): > 10 fold
CCOC(=O)c1c(-c2ccccc2)oc2ccc(O)c(CN3CCC(C)CC3)c12 [test compound]							MIC against Mtb isolate H37Rv (Mtb isolate H37Rv): 2.0 µM (≈ 0.787 µg/mL)
CNC(=O)c1c(-c2ccc(O)cc2)oc2cc(O)cc(CN3CCCCC3)c12 [compound 47]	98	50	570		1 (≈ 0.38 µg/mL)	1 (≈ 0.38 µg/mL)	activity in the lungs or the spleen, in words (M tuberculosis; GKO mice, 300 mg/kg dosing): did not show any activity; Lung CFU (M tuberculosis; mouse, in vivo): 8.39; Lung RLU (M tuberculosis; mouse, in vivo): 6.09; Spleen CFU (M tuberculosis; mouse, in vivo): 6.84; Spleen RLU (M tuberculosis; mouse, in vivo): 4.45
CNC(=O)c1c(-c2ccc(OC)cc2)oc2ccc(O)c(CN3CCCCC3)c12 [compound 31]	111	50	260	260	1.1 (≈ 0.434 µg/mL)	1.1 (≈ 0.434 µg/mL)	log CFU reduction in the lungs vs. untreated controls (M tuberculosis; GKO mice, 100 mg/kg oral once daily, 9 days, lungs): 0.84 log CFU; log CFU reduction in the spleen relative to untreated controls (M tuberculosis; GKO mice, 100 mg/kg oral once daily, 9 days, spleen): 1.54 log CFU; Diff of Means, Control vs. treatment, Lung (M tuberculosis; mouse, in vivo): 0.834; Diff of Means, Control vs. treatment, Spleen (M tuberculosis; mouse, in vivo): 2.623; Diff of Means, Inhibitor 31 vs. Inhibitor 32, Lung (M tuberculosis; mouse, in vivo): 0.340; Diff of Means, Inhibitor 31 vs. Inhibitor 32, Spleen (M tuberculosis; mouse, in vivo): 0.522; Diff of Means, Inhibitor 31 vs. Isoniazid, Lung (M tuberculosis; mouse, in vivo): 2.179; Diff of Means, Inhibitor 31 vs. Isoniazid, Spleen (M tuberculosis; mouse, in vivo): 2.101; Lung CFU (M tuberculosis; mouse, in vivo): 7.33; Lung RLU (M tuberculosis; mouse, in vivo): 5.06; Spleen CFU (M tuberculosis; mouse, in vivo): 5.11; Spleen RLU (M tuberculosis; mouse, in vivo): 2.59
CCOC(=O)c1c(-c2ccccc2)oc2ccc(O)c(CN3CCCCC3)c12 [compound 13]	105	50	300	260	0.4 (≈ 0.152 µg/mL)	0.4 (≈ 0.152 µg/mL)	growth inhibition in HDF cells relative to DMSO only control [1]: did not show any growth inhibition; MIC (Mtb strain mc^27000; [9]): 0.4 µM (≈ 0.152 µg/mL)
CCOC(=O)c1c(-c2ccccc2)oc2cc(O)cc(CN3CCC(C#N)CC3)c12 [compound 69]	93	50	1600	1600	20 (≈ 8.09 µg/mL)	20 (≈ 8.09 µg/mL)	
NNC(=O)c1ccncc1 [isoniazid, reference compound]							log reduction (CFU) in the spleen (Mtb (Erdman lux strain); Balb/C mice, isoniazid control 25 mg/kg, 4 weeks, spleen): 2.52 log; Diff of Means, Control vs. treatment (Mtb (Erdman lux strain); […], organ not given, values match spleen reductions of b137): 2.523; Lung CFU (Mtb (Erdman lux strain); mouse, in vivo): 4.98; Lung RLU (Mtb (Erdman lux strain); mouse, in vivo): 2.37; Spleen CFU (Mtb (Erdman lux strain); mouse, in vivo): 2.35; Spleen RLU (Mtb (Erdman lux strain); mouse, in vivo): 1.59; log reduction (CFU) in the lungs (Mtb (Erdman lux strain); mouse, in vivo): 1.11 log; Diff of Means, Control vs. treatment, Lung (M tuberculosis; mouse, in vivo): 3.013; Diff of Means, Control vs. treatment, Spleen (M tuberculosis; mouse, in vivo): 3.644; Lung CFU (M tuberculosis; mouse, in vivo): 5.15; Lung RLU (M tuberculosis; mouse, in vivo): 3.51; Spleen CFU (M tuberculosis; mouse, in vivo): 2.49; Spleen RLU (M tuberculosis; mouse, in vivo): 1.77; log CFU reduction in the spleen (M tuberculosis; mouse, in vivo): 4.16 log CFU; log CFU reduction relative to untreated control in the lungs (M tuberculosis; mouse, in vivo): 3.02 log CFU; log reduction in RLU (luciferase assay) (M tuberculosis; mouse, in vivo, 25 mg/kg): 1.01 log
CCOC(=O)c1c(-c2ccc(OC)cc2)oc2ccc(O)c(CN3CCCCC3)c12 [compound 21]	104	50	290	290	2.6 (≈ 1.06 µg/mL)	2.6 (≈ 1.06 µg/mL)	
CC(C)(C)OC(=O)N1CCN(C(=O)c2c(-c3ccccc3)oc3ccc(O)c(CN4CCCCC4)c23)CC1 [compound 39]	101	100	660	660	2.1 (≈ 1.09 µg/mL)	2.1 (≈ 1.09 µg/mL)	
Oc1ccc2[nH]c(-c3ccccc3)nc2c1CN1CCCCC1 [compound 8]	78		6800	6800	22 (≈ 6.76 µg/mL)	22 (≈ 6.76 µg/mL)	Survival vs. Control [1, 12]: 94%
CCOC(=O)c1c(-c2ccc(O)cc2)oc2cc(O)cc(CN3CCCCC3)c12 [compound 45]	89	100	440	440	1.1 (≈ 0.435 µg/mL)	1.1 (≈ 0.435 µg/mL)	
CCOC(=O)c1c(-c2ccccc2)oc2cc(O)cc(CN3CCCCC3)c12 [compound 38]	111	100		450	6.7 (≈ 2.54 µg/mL)	6.7 (≈ 2.54 µg/mL)	
CCOC(=O)c1c(-c2ccc(C#N)cc2)oc2ccc(O)c(CN3CCCCC3)c12 [compound 62]	90	6.25	270	270	1.5 (≈ 0.607 µg/mL)	1.5 (≈ 0.607 µg/mL)	
CNC(=O)c1c(-c2ccc(O)c(F)c2)oc2ccc(O)c(CN3CCCCC3)c12 [compound 61]	94	50		330	0.5 (≈ 0.199 µg/mL)	0.5 (≈ 0.199 µg/mL)	
CNC(=O)c1c(-c2ccccc2)oc2cc(O)cc(CN3CCCCC3)c12 [compound 40]	101	100	600	600	20 (≈ 7.29 µg/mL)	20 (≈ 7.29 µg/mL)	
CCOC(=O)c1c(-c2ccccc2)oc2cc(OC)cc(CNC(C)C)c12 [compound 72]	91	3.125	> 10000	> 10000	7.4 (≈ 2.72 µg/mL)	7.4 (≈ 2.72 µg/mL)	
CCOC(=O)c1c(-c2cc(F)c(O)c(F)c2)oc2ccc(O)c(CN3CCCCC3)c12 [compound 63]	99	25	500	500	7 (≈ 3.02 µg/mL)	7 (≈ 3.02 µg/mL)	
CCOC(=O)c1c(-c2ccccc2)oc2cc(O)cc(CN3CCC(NC(C)=O)CC3)c12 [compound 70]	91	50	6100	6100	> 40	> 40	
CNC(=O)c1c(-c2ccc(F)cc2)oc2ccc(O)c(CN3CCCCC3)c12 [compound 29]	89		300	300	4.5 (≈ 1.72 µg/mL)	4.5 (≈ 1.72 µg/mL)	Survival vs. Control [1, 12]: 112%
CCOC(=O)c1c(-c2ccccc2)oc2cc(N)cc(CN3CCCCC3)c12 [compound 34]	82	100	4500	4500	9.2 (≈ 3.48 µg/mL)	9.2 (≈ 3.48 µg/mL)	
CCOC(=O)c1c(-c2ccccc2)oc2ccc(O)c(CN3CCCC(C)C3)c12 (stereo not drawn) [compound 2]			120				growth inhibition in HDF cells relative to DMSO only control ([1]; up to 40 (unit not given)): did not show any growth inhibition; IC50 [2, 5]: 120 ± 20 nM; higher MIC compared to the test compound (Mtb strain mc^27000): ~2 fold; MIC (Mtb strain mc^27000; Mtb mc^27000, liquid medium, 96-well plates): 4.4 ± 0.2 µM (≈ 1.73 µg/mL); MIC (Mtb strain mc^27000; [13]): 4.4 ± 0.2 µM (≈ 1.73 µg/mL)
CCOC(=O)c1c(-c2ccccc2)oc2ccc(O)c(CN3CCCC3)c12 [compound 3]			240 ± 20				IC50 ([1]; read-out: half-maximum inhibitory concentration in HDF cells, HDF cells, resazurin): > 15000 nM; IC50 [2, 5]: 240 ± 20 nM; higher MIC compared to the test compound (Mtb strain mc^27000): ~2 fold; MIC (Mtb strain mc^27000; [8]): 4.1 µM (≈ 1.5 µg/mL); MIC (Mtb strain mc^27000; [13]): 4.1 ± 0.1 µM (≈ 1.5 µg/mL)
